Measurements from patent US8785399B2, “Antibacterial peptides” (Spiderbiotech S.R.A., priority 2008, dated 2014).
In brackets after ≈: the same amount, converted by molar mass. Positions of bridges follow the written chain, without caps; N, C: chain ends. Non-standard residues stand in square brackets, D forms with d. Residues, ends and D or L forms follow the SMILES beside them. Chains are numbered I, II in the order given. Aoc = NCCCCCCCC(=O)O; Ava = NCCCCC(=O)O; βAla = NCCC(=O)O

Legend:
[1] = system: Klebsiella pneumoniae ATCC 10031; experiment: MIC by broth microdilution, K. pneumoniae reference strain; type: cell-based; conditions: ATCC 10031
Procedure: (§1) Determination of MIC. MICs were determined in MHB by the broth microdilution methodology, according to CLSI procedure (formerly NCCLS, Ref. 11) by using final bacterial inocula of 1-5×10^5 CFU/mL. Assays were performed in sterile 96-well microtiter plates with round bottom wells (Corning Costar). Plates were incubated at 37° C. and read after 20-24 h. MIC was defined as the lowest drug concentration causing complete suppression of visible bacterial growth. All compounds were dissolved in (5% v/v DMSO).
(§2) These peptides were synthesized individually, in order to assay the activity of each sequence.

[2] = system: Staphylococcus aureus ATCC 25923
Procedure: as §1, §2

[3] = system: Pseudomonas aeruginosa ATCC 27853; experiment: MIC by broth microdilution, P. aeruginosa reference strain; type: cell-based; conditions: ATCC 27853
Procedure: as §1, §2

E. coli ATCC 25922 = experiment: MIC by broth microdilution, E. coli reference strain; type: cell-based, Escherichia coli; conditions: ATCC 25922
Procedure: as §1
All natural aminoacids have been divided into three groups based on their chemical-physical properties. A total amount of 27 minilibraries, each one containing six peptide in equimolar amounts, were obtained and assayed against E. coli ATCC 25922 as reference strain. MIC (Minimum Inhibitory Concentration) is defined as the lowest concentration inhibiting 100% of visible growth.

| Compound | MIC (ug/mL) K. pneumoniae [1] | MIC (ug/mL) S. aureus [2] | MIC (ug/mL) P. aeruginosa [3] | MIC (ug/mL) E. coli (E. coli ATCC 25922) |
| --- | --- | --- | --- | --- |
| H-WKKIRVRLSA-OH [ID6, H-W-KKIRVRLSA-OH] | 256 µg/mL | 512 µg/mL | 128 µg/mL | 64 to 128 µg/mL |
| H-LKKIRVRLSA-OH [ID4, H-L-KKIRVRLSA-OH] | 512 µg/mL | >512 µg/mL | 256 µg/mL | 256 µg/mL |
| CC[C@H](C)[C@H](NC(=O)[C@H](CCCCN)NC(=O)[C@H](Cc1c[nH]c2ccccc12)NC(=O)[C@H](CCC(N)=O)NC(=O)CCCCCCCN)C(=O)N[C@@H](CCCNC(=N)N)C(=O)N[C@H](C(=O)N[C@@H](CCCNC(=N)N)C(=O)N[C@@H](CC(C)C)C(=O)N[C@@H](CO)C(=O)N[C@@H](C)C(N)=O)C(C)C [ID16, H-8-Aoa-Q-W-KIRVRLSA-NH2] (H-[Aoc]QWKIRVRLSA-NH2) | >64 µg/mL |  | >64 µg/mL | 32 µg/mL (≈ 22.9 µM) |
| H-QKKIRVRLSA-OH [ID1, H-QKKIRVRLSA-OH, reference compound] | >512 µg/mL |  | >512 µg/mL |  |
| H-FKKIRVRLSA-OH [ID2, H-F-KKIRVRLSA-OH] | 512 µg/mL | 512 µg/mL | 256 µg/mL | 256 µg/mL |
| CC[C@H](C)[C@H](NC(=O)[C@H](CCCCN)NC(=O)[C@H](CCCCN)NC(=O)[C@H](CCC(N)=O)NC(=O)CCCCCCCN)C(=O)N[C@@H](CCCNC(=N)N)C(=O)N[C@H](C(=O)N[C@@H](CCCNC(=N)N)C(=O)N[C@@H](CC(C)C)C(=O)N[C@@H](CO)C(=O)N[C@@H](C)C(N)=O)C(C)C [ID17, H-8-Aoa-QKKIRVRLSA-NH2] (H-[Aoc]QKKIRVRLSA-NH2) | >64 µg/mL |  | >64 µg/mL | 64 µg/mL (≈ 47.8 µM) |
| H-QLKIRVRLSA-OH [ID10, H-Q-L-KIRVRLSA-OH] | >512 µg/mL | >512 µg/mL | 128 µg/mL | 128 µg/mL |
| CC[C@H](C)[C@H](NC(=O)[C@H](CCCCN)NC(=O)[C@H](CCCCN)NC(=O)[C@H](Cc1c[nH]c2ccccc12)NC(=O)CCCCCCCN)C(=O)N[C@@H](CCCNC(=N)N)C(=O)N[C@H](C(=O)N[C@@H](CCCNC(=N)N)C(=O)N[C@@H](CC(C)C)C(=O)N[C@@H](CO)C(=O)N[C@@H](C)C(N)=O)C(C)C [ID15, H-8-Aoa-W-KKIRVRLSA-NH2] (H-[Aoc]WKKIRVRLSA-NH2) | >64 µg/mL |  | >64 µg/mL | 32 µg/mL (≈ 22.9 µM) |
| H-IKKIRVRLSA-OH [ID3, H-I-KKIRVRLSA-OH] | 512 µg/mL | 512 µg/mL | 256 µg/mL | 256 µg/mL |
| H-QYKIRVRLSA-OH [ID13, H-Q-Y-KIRVRLSA-OH] | >512 µg/mL | >512 µg/mL | >512 µg/mL | >256 µg/mL |
| H-QVKIRVRLSA-OH [ID11, H-Q-V-KIRVRLSA-OH] | >512 µg/mL | >512 µg/mL | 256 µg/mL | 256 µg/mL |
| H-GQWKIRVRLSA-OH [ID14, H-G-Q-W-KIRVRLSA-OH] | >512 µg/mL | >512 µg/mL | 64 µg/mL | 64 µg/mL |
| H-YKKIRVRLSA-OH [ID7, H-Y-KKIRVRLSA-OH] | >512 µg/mL | >512 µg/mL | 256 µg/mL | 256 µg/mL |
| H-QFKIRVRLSA-OH [ID8, H-Q-F-KIRVRLSA-OH] | >512 µg/mL | >512 µg/mL | 128 µg/mL | 128 µg/mL |
| H-QWKIRVRLSA-OH [ID12, H-Q-W-KIRVRLSA-OH] | >512 µg/mL | >512 µg/mL | 64 µg/mL | 64 µg/mL |
| H-QIKIRVRLSA-OH [ID9, H-Q-I-KIRVRLSA-OH] | 512 µg/mL | >512 µg/mL | >512 µg/mL | 512 µg/mL |
| CC[C@H](C)[C@H](NC(=O)[C@H](CCCCN)NC(=O)[C@H](CCCCN)NC(=O)[C@H](CCC(N)=O)NC(=O)CN)C(=O)N[C@@H](CCCNC(=N)N)C(=O)N[C@H](C(=O)N[C@@H](CCCNC(=N)N)C(=O)N[C@@H](CC(C)C)C(=O)N[C@@H](CO)C(=O)N[C@@H](C)C(=O)NCCCC[C@H](NC(=O)[C@H](C)NC(=O)[C@H](CO)NC(=O)[C@H](CC(C)C)NC(=O)[C@H](CCCNC(=N)N)NC(=O)[C@@H](NC(=O)[C@H](CCCNC(=N)N)NC(=O)[C@@H](NC(=O)[C@H](CCCCN)NC(=O)[C@H](CCCCN)NC(=O)[C@H](CCC(N)=O)NC(=O)CN)[C@@H](C)CC)C(C)C)C(=O)NCCC(N)=O)C(C)C [ID20, (H-G-QKKIRVRLSA)2-Lys-β-Ala-NH2] (I: H-GQKKIRVRLSAK[βAla]-NH2 / II: H-GQKKIRVRLSA; amide I:12-II:C) | >64 µg/mL |  | >64 µg/mL | 16 to 32 µg/mL |
| CC[C@H](C)[C@H](NC(=O)[C@H](CCCCN)NC(=O)[C@H](CCCCN)NC(=O)[C@H](CCC(N)=O)NC(=O)CCCCCCCN)C(=O)N[C@@H](CCCNC(=N)N)C(=O)N[C@H](C(=O)N[C@@H](CCCNC(=N)N)C(=O)N[C@@H](CC(C)C)C(=O)N[C@@H](CO)C(=O)N[C@@H](C)C(=O)NCCCC[C@H](NC(=O)[C@H](C)NC(=O)[C@H](CO)NC(=O)[C@H](CC(C)C)NC(=O)[C@H](CCCNC(=N)N)NC(=O)[C@@H](NC(=O)[C@H](CCCNC(=N)N)NC(=O)[C@@H](NC(=O)[C@H](CCCCN)NC(=O)[C@H](CCCCN)NC(=O)[C@H](CCC(N)=O)NC(=O)CCCCCCCN)[C@@H](C)CC)C(C)C)C(=O)NCCC(N)=O)C(C)C [ID23, (H-8-Aoa-OKKIRVRLSA)2-Lys-β-Ala-NH2] (I: H-[Aoc]QKKIRVRLSAK[βAla]-NH2 / II: H-[Aoc]QKKIRVRLSA; amide I:12-II:C) | >64 µg/mL |  | >64 µg/mL | 32 µg/mL (≈ 11.2 µM) |
| CC[C@H](C)[C@H](NC(=O)[C@H](CCCCN)NC(=O)[C@H](Cc1c[nH]c2ccccc12)NC(=O)[C@H](CCC(N)=O)NC(=O)CN)C(=O)N[C@@H](CCCNC(=N)N)C(=O)N[C@H](C(=O)N[C@@H](CCCNC(=N)N)C(=O)N[C@@H](CC(C)C)C(=O)N[C@@H](CO)C(=O)N[C@@H](C)C(=O)NCCCC[C@H](NC(=O)[C@H](C)NC(=O)[C@H](CO)NC(=O)[C@H](CC(C)C)NC(=O)[C@H](CCCNC(=N)N)NC(=O)[C@@H](NC(=O)[C@H](CCCNC(=N)N)NC(=O)[C@@H](NC(=O)[C@H](CCCCN)NC(=O)[C@H](Cc1c[nH]c2ccccc12)NC(=O)[C@H](CCC(N)=O)NC(=O)CN)[C@@H](C)CC)C(C)C)C(=O)NCCC(N)=O)C(C)C [ID19, (H-G-Q-W-KIRVRLSA)2-Lys-β-Ala-NH2] (I: H-GQWKIRVRLSAK[βAla]-NH2 / II: H-GQWKIRVRLSA; amide I:12-II:C) | >64 µg/mL |  | >64 µg/mL | 16 µg/mL (≈ 5.7 µM) |
| CC[C@H](C)[C@H](NC(=O)[C@H](CCCCN)NC(=O)[C@H](Cc1c[nH]c2ccccc12)NC(=O)[C@H](CCC(N)=O)NC(=O)CCCCN)C(=O)N[C@@H](CCCNC(=N)N)C(=O)N[C@H](C(=O)N[C@@H](CCCNC(=N)N)C(=O)N[C@@H](CC(C)C)C(=O)N[C@@H](CO)C(=O)N[C@@H](C)C(=O)NCCCC[C@H](NC(=O)[C@H](C)NC(=O)[C@H](CO)NC(=O)[C@H](CC(C)C)NC(=O)[C@H](CCCNC(=N)N)NC(=O)[C@@H](NC(=O)[C@H](CCCNC(=N)N)NC(=O)[C@@H](NC(=O)[C@H](CCCCN)NC(=O)[C@H](Cc1c[nH]c2ccccc12)NC(=O)[C@H](CCC(N)=O)NC(=O)CCCCN)[C@@H](C)CC)C(C)C)C(=O)NCCC(N)=O)C(C)C [ID22, (H-5-Ava-Q-W-KIRVRLSA)2-Lys-β-Ala-NH2] (I: H-[Ava]QWKIRVRLSAK[βAla]-NH2 / II: H-[Ava]QWKIRVRLSA; amide I:12-II:C) | >64 µg/mL |  | >64 µg/mL | 16 µg/mL (≈ 5.53 µM) |
| CC[C@H](C)[C@H](NC(=O)[C@H](CCCCN)NC(=O)[C@H](CCCCN)NC(=O)[C@H](Cc1c[nH]c2ccccc12)NC(=O)CCCCN)C(=O)N[C@@H](CCCNC(=N)N)C(=O)N[C@H](C(=O)N[C@@H](CCCNC(=N)N)C(=O)N[C@@H](CC(C)C)C(=O)N[C@@H](CO)C(=O)N[C@@H](C)C(=O)NCCCC[C@H](NC(=O)[C@H](C)NC(=O)[C@H](CO)NC(=O)[C@H](CC(C)C)NC(=O)[C@H](CCCNC(=N)N)NC(=O)[C@@H](NC(=O)[C@H](CCCNC(=N)N)NC(=O)[C@@H](NC(=O)[C@H](CCCCN)NC(=O)[C@H](CCCCN)NC(=O)[C@H](Cc1c[nH]c2ccccc12)NC(=O)CCCCN)[C@@H](C)CC)C(C)C)C(=O)NCCC(N)=O)C(C)C [ID21, (H-5-Ava-W-KKIRVRLSA)2-Lys-β-Ala-NH2] (I: H-[Ava]WKKIRVRLSAK[βAla]-NH2 / II: H-[Ava]WKKIRVRLSA; amide I:12-II:C) | 64 µg/mL (≈ 22.1 µM) |  | 64 µg/mL (≈ 22.1 µM) | 8 to 16 µg/mL |
